In one assay the test system is HIV-1 RT M184V + Y115F. Nature of the assay: Mutant HIV-1 RT assay M184V + Y115F. The conditions noted are these: Poly rC.dG [^3H]dGTP. It is filed as biochemical.
In another assay the target is HIV-1 RT (Human immunodeficiency virus type 1 group M subtype B, UniProt P04585). Nature of the assay: Gel-based HIV-1 RT-catalyzed DNA synthesis on heteropolymeric DNA. In kind it is biochemical.
Assay [1] addresses cellular DNA polymerase β (Homo sapiens, UniProt P06746). Nature of the assay: Cellular DNA polymerase β assay. In kind it is biochemical.
The subject of a further assay is HIV-1 RT L100I. The conditions noted are these: Poly rC.dG [^3H]dGTP.
For assay [2], the target named is T1, cellular DNA polymerase α (Homo sapiens, UniProt P09884).
T1 sequence (P09884 1-1462): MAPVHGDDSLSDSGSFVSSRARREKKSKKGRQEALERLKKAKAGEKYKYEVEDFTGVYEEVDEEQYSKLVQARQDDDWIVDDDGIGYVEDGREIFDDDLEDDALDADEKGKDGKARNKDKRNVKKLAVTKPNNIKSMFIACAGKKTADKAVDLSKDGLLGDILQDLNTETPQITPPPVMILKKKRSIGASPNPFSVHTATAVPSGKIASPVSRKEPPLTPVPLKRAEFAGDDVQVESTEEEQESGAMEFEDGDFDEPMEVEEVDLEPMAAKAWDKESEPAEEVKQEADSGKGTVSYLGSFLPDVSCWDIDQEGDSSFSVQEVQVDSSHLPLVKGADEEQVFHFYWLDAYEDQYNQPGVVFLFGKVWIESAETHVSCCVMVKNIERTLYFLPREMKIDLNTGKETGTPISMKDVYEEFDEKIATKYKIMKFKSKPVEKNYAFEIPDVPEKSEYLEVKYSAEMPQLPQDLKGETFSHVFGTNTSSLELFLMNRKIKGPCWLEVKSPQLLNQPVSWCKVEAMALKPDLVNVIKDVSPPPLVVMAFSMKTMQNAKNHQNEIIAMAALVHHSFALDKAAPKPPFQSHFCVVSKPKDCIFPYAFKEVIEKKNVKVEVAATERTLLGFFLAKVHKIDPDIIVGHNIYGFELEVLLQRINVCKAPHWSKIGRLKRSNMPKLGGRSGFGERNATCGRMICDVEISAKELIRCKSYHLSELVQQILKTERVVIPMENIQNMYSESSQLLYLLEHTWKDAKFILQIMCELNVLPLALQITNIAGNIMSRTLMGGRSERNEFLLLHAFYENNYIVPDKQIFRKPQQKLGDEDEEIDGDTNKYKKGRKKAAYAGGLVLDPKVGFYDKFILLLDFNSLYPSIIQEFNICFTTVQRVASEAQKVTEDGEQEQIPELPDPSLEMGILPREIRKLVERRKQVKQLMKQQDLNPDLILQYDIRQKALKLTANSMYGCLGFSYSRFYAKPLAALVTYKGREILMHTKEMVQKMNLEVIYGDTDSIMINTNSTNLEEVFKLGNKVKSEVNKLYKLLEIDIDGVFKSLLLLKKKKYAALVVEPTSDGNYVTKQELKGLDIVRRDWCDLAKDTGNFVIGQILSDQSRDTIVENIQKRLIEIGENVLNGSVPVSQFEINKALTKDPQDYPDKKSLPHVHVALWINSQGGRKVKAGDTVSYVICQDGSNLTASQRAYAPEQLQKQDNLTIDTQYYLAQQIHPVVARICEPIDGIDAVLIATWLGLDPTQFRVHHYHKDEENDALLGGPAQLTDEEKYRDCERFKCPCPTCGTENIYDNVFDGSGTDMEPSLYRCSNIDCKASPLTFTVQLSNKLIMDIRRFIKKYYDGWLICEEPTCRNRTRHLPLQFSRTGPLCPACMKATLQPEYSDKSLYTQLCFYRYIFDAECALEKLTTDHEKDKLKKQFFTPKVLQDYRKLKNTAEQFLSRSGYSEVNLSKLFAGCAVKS
Nature of the assay: Cellular DNA polymerase α assay. It is filed as biochemical.

A further assay relates to HIV-1 RT Q151M. Briefly: Mutant HIV-1 RT assay Q151M. In kind it is biochemical. The note with it: Poly rC.dG [^3H]dGTP.

This note sets out measurements from paper PMC5557014 (Biochemical pharmacology, 2017).

The term IC50 denotes the concentration needed to halve the response being measured. Higher therefore signals weaker potency in that assay.

Structures are written as SMILES.

Take `Nc1nc2c(ncn2[C@@H]2CC[C@H](OC(C(=O)O)P(=O)(O)O)C2)c(=O)[nH]1` (mixture of isomers) [(L,D)-(±)G-α-CNP, cis-9-{4-[Carboxy(phosphono)methoxy]cyclopentan-1-yl}guanine]: the “Fold-resistance compared to wild-type” value amounted to 39 fold with HIV-1 RT M184V + Y115F, 5.2 fold in the assay on HIV-1 RT L100I and 3.1 fold in the assay on HIV-1 RT Q151M. For the same molecule, the IC50 is 1.8 ± 1.1 µM against HIV-1 RT, 531 ± 5 µM in assay [1] and 477 ± 83 µM in assay [2].
